Experimental data reported in patent US12116343B2, “Inhibitors of APOL1 and methods of using same” (Vertex Pharmaceuticals Incorporated, priority 2020, dated 2024).

The molecules below were run against T1, G1 APOL1 (Homo sapiens, UniProt O14791, I384M/S342G) (assay: Acute APOL1 Thallium Assay with inducible stable clones of HEK 293 cells). Details: HEK 293 T-Rex cells expressing G1 APOL1; read-out: Thallium Assay (IC50).
T1 construct: expressed in transfected cells
T1 sequence (O14791 28-398 S342G/I384M): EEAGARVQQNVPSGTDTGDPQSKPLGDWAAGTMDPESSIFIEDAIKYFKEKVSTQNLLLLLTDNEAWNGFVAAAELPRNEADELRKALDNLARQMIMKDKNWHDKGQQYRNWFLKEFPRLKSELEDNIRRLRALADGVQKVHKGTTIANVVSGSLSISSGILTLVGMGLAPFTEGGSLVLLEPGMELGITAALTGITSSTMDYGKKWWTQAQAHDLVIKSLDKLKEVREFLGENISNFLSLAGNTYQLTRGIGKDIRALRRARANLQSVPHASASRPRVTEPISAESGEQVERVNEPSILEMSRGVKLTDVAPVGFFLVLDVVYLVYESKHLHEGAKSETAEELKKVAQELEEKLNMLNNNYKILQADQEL
Type: cell-based
Summary of the method: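 Readout: Tl+-triggered fluorescence, FLIPR, reflecting potassium flux through APOL1 pores after cells take up an AM-ester thallium indicator. Cells: HEK T-Rex stable clone G1 DC3.25, APOL1 G1 induced by tetracycline, seeded 26000 per well.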

IC50	Structure (SMILES)
< 250 nM	O=C1NC[C@@H](O)[C@@H]1NC(=O)[C@H]1C[C@H](c2c(-c3ccc(F)cc3)[nH]c3c(F)cc(F)cc32)C1 [Compound 229]
> 1000 nM	O=C1NCC[C@H]1NC(=O)[C@H]1C[C@@H](c2c(-c3ccc(F)cc3)[nH]c3c(F)cc(F)cc32)C1 [Compound 236]
> 1000 nM	Cn1nccc1NC(=O)[C@H]1C[C@@H](c2c(-c3ccc(F)cc3)[nH]c3c(F)cc(F)cc32)C1 [Compound 247]
> 1000 nM	C[C@H](O)[C@H](CO)NC(=O)[C@H]1C[C@@H](c2c(-c3ccc(F)cc3)[nH]c3c(F)cc(F)cc32)C1 [Compound 245]
> 1000 nM	O=C1CN(C(=O)[C@H]2C[C@@H](c3c(-c4ccc(F)cc4)[nH]c4c(F)cc(F)cc43)C2)CCN1 [Compound 275]
250 to 1000 nM	Cn1cnc(CNC(=O)C2(C)CC(c3c(-c4ccc(F)cc4)[nH]c4c(F)cc(F)cc34)C2)c1 (mixture of isomers) [Compound 282]
250 to 1000 nM	Cc1ccn(CCNC(=O)[C@H]2C[C@@H](c3c(-c4ccc(F)cc4)[nH]c4c(F)cc(F)cc43)C2)n1 [Compound 263]
> 1000 nM	Cn1nccc1CNC(=O)[C@H]1C[C@@H](c2c(-c3ccc(F)cc3)[nH]c3c(F)cc(F)cc32)C1 [Compound 265]

The next lines start with the molecule.

Structure (SMILES)	IC50
C[C@H](CO)NC(=O)CNC(=O)[C@H]1C[C@H](c2c(-c3ccc(F)cc3)[nH]c3c(F)cc(F)cc32)C1 [Compound 232]	> 1000 nM
O=C(NC1CC(O)C1)[C@H]1C[C@@H](c2c(-c3ccc(F)cc3)[nH]c3c(F)cc(F)cc32)C1 (stereo partly drawn) [Compound 239]	> 1000 nM
O=C(N[C@@H]1CC[C@H](O)C1)[C@H]1C[C@H](c2c(-c3ccc(F)cc3)[nH]c3c(F)cc(F)cc32)C1 [Compound 180]	> 1000 nM
Cn1cnc(CNC(=O)C2(F)CC(c3c(-c4ccc(F)cc4)[nH]c4c(F)cc(F)cc34)C2)c1 (stereo not drawn) [Compound 286]	< 250 nM
O=C(NC(CO)(CO)CO)[C@H]1C[C@H](c2c(-c3ccc(F)cc3)[nH]c3c(F)cc(F)cc32)C1 [Compound 226]	< 250 nM
O=C(NCC1CC(F)(F)C1)[C@H]1C[C@@H](c2c(-c3ccc(F)cc3)[nH]c3c(F)cc(F)cc32)C1 [Compound 266]	> 1000 nM
O=C(N[C@H]1CC[C@H](O)C1)[C@H]1C[C@H](c2c(-c3ccc(F)cc3)[nH]c3c(F)cc(F)cc32)C1 [Compound 187]	> 1000 nM
CC(C)(CO)NC(=O)[C@H]1C[C@@H](c2c(-c3ccc(F)cc3)[nH]c3c(F)cc(F)cc32)C1 [Compound 256]	250 to 1000 nM

Same assay, conditions: Table 24, Compounds 287 to 465; read-out: Thallium Assay (IC50)

IC50	Structure (SMILES)
> 1000 nM	O=C(NCC(O)CO)O[C@H]1C[C@H](c2c(-c3ccc(F)cc3)[nH]c3c(F)cc(F)cc32)C1 (stereo partly drawn) [Compound 367]
250 to 1000 nM	O=C(CN[C@H]1C[C@H](c2c(-c3ccc(F)cc3)[nH]c3c(F)cc(F)cc32)C1)NCO [Compound 289]
250 to 1000 nM	O=C(NCCO)C1CC(Cc2c(-c3ccc(F)cc3)[nH]c3c(F)cc(F)cc23)C1 (stereo not drawn) [Compound 299, 3-[[5,7-difluoro-2-(4-fluorophenyl)-1H-indol-3-yl]methyl]-N-(2-hydroxyethyl)cyclobutane-1-carboxamide]
> 1000 nM	O=C(NCC1(O)CCCC1)C1CC(Cc2c(-c3ccc(F)cc3)[nH]c3c(F)cc(F)cc23)C1 (stereo not drawn) [Compound 315]
> 1000 nM	C[C@H](NC(=O)C1CC(Cc2c(-c3ccc(F)cc3)[nH]c3c(F)cc(F)cc23)C1)C(C)(C)O (stereo partly drawn) [Compound 329]
> 1000 nM	Cc1nn(C)cc1CNC(=O)C1CC(Cc2c(-c3ccc(F)cc3)[nH]c3c(F)cc(F)cc23)C1 (stereo not drawn) [Compound 335]
250 to 1000 nM	CON(C)C(=O)CNC[C@H]1C[C@H](c2c(-c3ccc(F)cc3)[nH]c3c(F)cc(F)cc32)C1 [Compound 450]
> 1000 nM	CC(C)C[C@@H](CO)NC(=O)C1CC(Cc2c(-c3ccc(F)cc3)[nH]c3c(F)cc(F)cc23)C1 (stereo partly drawn) [Compound 347]
> 1000 nM	C[C@H](O)[C@H](CO)NC(=O)O[C@H]1C[C@H](c2c(-c3ccc(F)cc3)[nH]c3c(F)cc(F)cc32)C1 [Compound 366]
> 1000 nM	O=C(NC[C@@H](O)C(F)(F)F)NC[C@H]1C[C@H](c2c(-c3ccc(F)cc3)[nH]c3c(F)cc(F)cc32)C1 [Compound 424]
> 1000 nM	C[C@@H](NCC1CC(c2c(-c3ccc(F)cc3)[nH]c3c(F)cc(F)cc23)C1)C(=O)N(C)C (stereo partly drawn) [Compound 438]
250 to 1000 nM	O=C(CNC[C@H]1C[C@H](c2c(-c3ccc(F)cc3)[nH]c3c(F)cc(F)cc32)C1)NC1CC1 [Compound 449]
250 to 1000 nM	CN(C)C(=O)CNCC1CC(c2c(-c3ccc(F)cc3)[nH]c3c(F)cc(F)cc23)C1 (stereo not drawn) [Compound 435]
> 1000 nM	O=C(NCc1ccco1)O[C@H]1C[C@H](c2c(-c3ccc(F)cc3)[nH]c3c(F)cc(F)cc32)C1 [Compound 379]
250 to 1000 nM	O=C(NCC(F)F)N1CC(c2c(-c3ccc(F)cc3)[nH]c3c(F)cc(F)cc23)C1 [Compound 465, 3-(5,7-difluoro-2-(4-fluorophenyl)-1H-indol-3-yl)-N-(2,2-difluoroethyl)azetidine-1-carboxamide]
> 1000 nM	O=C(NC[C@H]1C[C@H](c2c(-c3ccc(F)cc3)[nH]c3c(F)cc(F)cc32)C1)NC1(CO)CC(F)(F)C1 [Compound 400]
> 1000 nM	O=C(NCc1ccoc1)C1CC(Cc2c(-c3ccc(F)cc3)[nH]c3c(F)cc(F)cc23)C1 (stereo not drawn) [Compound 317]
> 1000 nM	CC(C)[C@@H](CO)NC(=O)O[C@H]1C[C@H](c2c(-c3ccc(F)cc3)[nH]c3c(F)cc(F)cc32)C1 [Compound 377]
> 1000 nM	O=C(NCC1(O)COC1)NC[C@H]1C[C@H](c2c(-c3ccc(F)cc3)[nH]c3c(F)cc(F)cc32)C1 [Compound 398]
250 to 1000 nM	C[C@H](NCC1CC(c2c(-c3ccc(F)cc3)[nH]c3c(F)cc(F)cc23)C1)C(=O)N(C)C (stereo partly drawn) [Compound 434]

Second part, the molecule before the results:

Structure (SMILES)	IC50
C[C@H](CO)NC(=O)NC[C@H]1C[C@H](c2c(-c3ccc(F)cc3)[nH]c3c(F)cc(F)cc32)C1 [Compound 409]	> 1000 nM
O=C(N[C@H]1CCOC1)O[C@H]1C[C@H](c2c(-c3ccc(F)cc3)[nH]c3c(F)cc(F)cc32)C1 [Compound 381]	> 1000 nM
O=C(NC[C@H](O)C(F)(F)F)NC[C@H]1C[C@H](c2c(-c3ccc(F)cc3)[nH]c3c(F)cc(F)cc32)C1 [Compound 406]	> 1000 nM
O=C(NCc1ccc(=O)[nH]c1)C1CC(Cc2c(-c3ccc(F)cc3)[nH]c3c(F)cc(F)cc23)C1 (stereo not drawn) [Compound 346]	> 1000 nM
Cc1cc(CNC(=O)O[C@H]2C[C@H](c3c(-c4ccc(F)cc4)[nH]c4c(F)cc(F)cc43)C2)on1 [Compound 385]	> 1000 nM
CC[C@H](CO)NC(=O)NC[C@H]1C[C@H](c2c(-c3ccc(F)cc3)[nH]c3c(F)cc(F)cc32)C1 [Compound 418]	> 1000 nM
C[C@@H](O)CNC(=O)NC[C@H]1C[C@H](c2c(-c3ccc(F)cc3)[nH]c3c(F)cc(F)cc32)C1 [Compound 407]	> 1000 nM
O=C(CC1CC(c2c(-c3ccc(F)cc3)[nH]c3c(F)cc(F)cc23)C1)N[C@@H]1CCNC1=O (stereo partly drawn) [Compound 457]	> 1000 nM
C[C@H](O)CNC(=O)N(C)CC1CC(c2c(-c3ccc(F)cc3)[nH]c3c(F)cc(F)cc23)C1 (stereo partly drawn) [Compound 430]	> 1000 nM
CC(C)NC(=O)CN[C@H]1C[C@H](c2c(-c3ccc(F)cc3)[nH]c3c(F)cc(F)cc32)C1 [Compound 290]	> 1000 nM
CNC(=O)CNC[C@H]1C[C@H](c2c(-c3ccc(F)cc3)[nH]c3c(F)cc(F)cc32)C1 [Compound 446]	< 250 nM
Cc1noc(CNC(=O)C2CC(Cc3c(-c4ccc(F)cc4)[nH]c4c(F)cc(F)cc34)C2)n1 (stereo not drawn) [Compound 304]	> 1000 nM
O=C(NCc1ncc[nH]1)C1CC(Cc2c(-c3ccc(F)cc3)[nH]c3c(F)cc(F)cc23)C1 (stereo not drawn) [Compound 342]	> 1000 nM
CO[C@H]1C[C@@H](NC(=O)O[C@H]2C[C@H](c3c(-c4ccc(F)cc4)[nH]c4c(F)cc(F)cc43)C2)C1 [Compound 390]	> 1000 nM
CN(CC1CC(c2c(-c3ccc(F)cc3)[nH]c3c(F)cc(F)cc23)C1)C(=O)NCCO (stereo not drawn) [Compound 431]	> 1000 nM
O=C(N[C@H]1CCOC1=O)C1CC(Cc2c(-c3ccc(F)cc3)[nH]c3c(F)cc(F)cc23)C1 (stereo partly drawn) [Compound 305]	> 1000 nM
Cn1cnc(CNC(=O)C2CC(Cc3c(-c4ccc(F)cc4)[nH]c4c(F)cc(F)cc34)C2)c1 (stereo not drawn) [Compound 314]	> 1000 nM
O=C(N[C@@H](CO)C(F)(F)F)C1CC(Cc2c(-c3ccc(F)cc3)[nH]c3c(F)cc(F)cc23)C1 (stereo partly drawn) [Compound 306]	> 1000 nM
O=C(NC1(CO)CC(F)(F)C1)C1CC(Cc2c(-c3ccc(F)cc3)[nH]c3c(F)cc(F)cc23)C1 (stereo not drawn) [Compound 309]	> 1000 nM
O=C(CC1CC(c2c(-c3ccc(F)cc3)[nH]c3c(F)cc(F)cc23)C1)N[C@@H](CO)C(F)(F)F (stereo partly drawn) [Compound 462]	> 1000 nM
O=C(NC[C@H]1C[C@H](c2c(-c3ccc(F)cc3)[nH]c3c(F)cc(F)cc32)C1)N[C@H]1CC[C@H]1O [Compound 394]	> 1000 nM
O=C(NC[C@H]1C[C@H](c2c(-c3ccc(F)cc3)[nH]c3c(F)cc(F)cc32)C1)N[C@H]1CC[C@H](O)C1 [Compound 419]	> 1000 nM
CC(C)(NCC1CC(c2c(-c3ccc(F)cc3)[nH]c3c(F)cc(F)cc23)C1)C(=O)NCC(F)(F)F (stereo not drawn) [Compound 442]	> 1000 nM
Cn1cnc(CNC(=O)O[C@H]2C[C@H](c3c(-c4ccc(F)cc4)[nH]c4c(F)cc(F)cc43)C2)c1 [Compound 368]	> 1000 nM
